In ChEMBL document CHEMBL1136645, “The identification of clinical candidate SB-480848: a potent inhibitor of lipoprotein-associated phospholipase A2” (Bioorg Med Chem Lett, 2003):

test system: not listed separately; test: Oral bioavailability in dog; type: ADME, organism-based, Canis lupus familiaris; conditions: in vivo

SMILES | bioavailability [%]
CCN(CC)CCN(Cc1ccc(-c2ccc(C(F)(F)F)cc2)cc1)C(=O)Cn1c(SCc2ccc(F)cc2)nc(=O)c2c1CCC2 [DARAPLADIB] | 28

test system: not listed separately; test: Oral bioavailability in fed rat; type: ADME, organism-based; conditions: in vivo

SMILES | bioavailability [%]
CCN(CC)CCN(Cc1ccc(-c2ccc(C(F)(F)F)cc2)cc1)C(=O)Cn1c(SCc2ccc(F)cc2)nc(=O)c2c1CCC2 [DARAPLADIB] | 11
CCN(CC)CCN(Cc1ccc(-c2ccc(C(F)(F)F)cc2)cc1)C(=O)Cn1cc(Cc2cnn(C)c2)c(=O)nc1SCc1ccc(F)cc1 | 2

test system: not listed separately; test: Permeability in plasma; type: ADME, cell-free; conditions: not told; read-out: Permeability (converted)

SMILES | Papp [×10⁻⁶ cm/s]
CCN(CC)CCN(Cc1ccc(-c2ccc(Cl)cc2)cc1)C(=O)Cn1c(SCc2ccc(F)cc2)nc(=O)c2c1CCC2 | 38.9
CCN(CC)CCN(Cc1ccc(-c2ccc(C(F)(F)F)cc2)cc1)C(=O)Cn1cc(CCNS(C)(=O)=O)c(=O)nc1SCc1ccc(F)cc1 | 1.39
CCN(CC)CCN(Cc1ccc(-c2ccc(C(F)(F)F)cc2)cc1)C(=O)Cn1c(C)cc(=O)nc1SCc1ccc(F)cc1 | 13.9
CCN(CC)CCN(Cc1ccc(-c2ccc(C(F)(F)F)cc2)cc1)C(=O)Cn1c(SCc2ccc(F)cc2)nc(=O)c2c1CCC2 [DARAPLADIB] | 27.8
CCN(CC)CCN(Cc1ccc(-c2ccc(C(F)(F)F)cc2)cc1)C(=O)Cn1c(SCc2ccc(F)cc2)nc(=O)c(C)c1C | 8.33
CCN(CC)CCN(Cc1ccc(-c2ccc(C(F)(F)F)cc2)cc1)C(=O)Cn1cc(CCNC(C)=O)c(=O)nc1SCc1ccc(F)cc1 | 0.833
CCN(CC)CCN(Cc1ccc(-c2ccc(C(F)(F)F)cc2)cc1)C(=O)Cn1c(SCc2ccc(F)cc2)nc(=O)c2c1CCCC2 | 16.7

target: Cytochrome P450 3A4 (Homo sapiens, UniProt P08684); test: Inhibitory activity against CYP450 3A4 isozyme; type: ADME; conditions: not given
Sequence (P08684 whole entry): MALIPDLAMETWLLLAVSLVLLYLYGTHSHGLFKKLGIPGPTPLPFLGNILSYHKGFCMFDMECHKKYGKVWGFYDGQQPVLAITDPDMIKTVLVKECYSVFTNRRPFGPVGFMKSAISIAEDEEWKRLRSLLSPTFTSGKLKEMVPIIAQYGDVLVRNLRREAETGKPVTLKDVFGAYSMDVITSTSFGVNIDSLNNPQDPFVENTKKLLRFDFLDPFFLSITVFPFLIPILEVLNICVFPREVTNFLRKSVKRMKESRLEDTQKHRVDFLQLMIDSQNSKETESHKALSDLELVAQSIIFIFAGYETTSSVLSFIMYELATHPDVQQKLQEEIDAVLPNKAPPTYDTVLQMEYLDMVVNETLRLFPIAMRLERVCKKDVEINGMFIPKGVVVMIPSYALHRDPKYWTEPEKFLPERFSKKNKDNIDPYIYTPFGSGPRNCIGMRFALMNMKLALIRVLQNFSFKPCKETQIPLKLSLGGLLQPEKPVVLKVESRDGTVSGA

SMILES | IC50 [µM]
CCN(CC)CCN(Cc1ccc(-c2ccc(Cl)cc2)cc1)C(=O)Cn1c(SCc2ccc(F)cc2)nc(=O)c2c1CCC2 | 18
CCCc1cn(CC(=O)N(CCN(CC)CC)Cc2ccc(-c3ccc(C(F)(F)F)cc3)cc2)c(SCc2ccc(F)cc2)nc1=O | 5
CCc1cn(CC(=O)N(CCN(CC)CC)Cc2ccc(-c3ccc(C(F)(F)F)cc3)cc2)c(SCc2ccc(F)cc2)nc1=O | 11
CCN(CC)CCN(Cc1ccc(-c2ccc(C(F)(F)F)cc2)cc1)C(=O)Cn1cc(C)c(=O)nc1SCc1ccc(F)cc1 | 17
CCN(CC)CCN(Cc1ccc(-c2ccc(C(F)(F)F)cc2)cc1)C(=O)Cn1c(C)cc(=O)nc1SCc1ccc(F)cc1 | 22
CCN(CC)CCN(Cc1ccc(-c2ccc(Cl)cc2)cc1)C(=O)Cn1c(SCc2ccc(F)cc2)nc(=O)c2c1CCCC2 | 5
CCN(CC)CCN(Cc1ccc(-c2ccc(C(F)(F)F)cc2)cc1)C(=O)Cn1cc(Cl)c(=O)nc1SCc1ccc(F)cc1 | 29
CCN(CC)CCN(Cc1ccc(-c2ccc(Cl)cc2)cc1)C(=O)Cn1cc(C)c(=O)nc1SCc1ccc(F)cc1 | 13
CCN(CC)CCN(Cc1ccc(-c2ccc(C(F)(F)F)cc2)cc1)C(=O)Cn1c(SCc2ccc(F)cc2)nc(=O)c(C)c1C | 22
CCN(CC)CCN(Cc1ccc(-c2ccc(C(F)(F)F)cc2)cc1)C(=O)Cn1cc(SC)c(=O)nc1SCc1ccc(F)cc1 | 15
CCN(CC)CCN(Cc1ccc(-c2ccc(C(F)(F)F)cc2)cc1)C(=O)Cn1cc(Br)c(=O)nc1SCc1ccc(F)cc1 | 39
CCc1cn(CC(=O)N(CCN(CC)CC)Cc2ccc(-c3ccc(Cl)cc3)cc2)c(SCc2ccc(F)cc2)nc1=O | 7
CCN(CC)CCN(Cc1ccc(-c2ccc(C(F)(F)F)cc2)cc1)C(=O)Cn1c(SCc2ccc(F)cc2)nc(=O)c2c1CCCC2 | 10

target: Cytochrome P450 2D6 (Homo sapiens, UniProt P10635); test: Inhibitory activity against Cytochrome P450 2D6; type: ADME; conditions: not given
Sequence (P10635 whole entry): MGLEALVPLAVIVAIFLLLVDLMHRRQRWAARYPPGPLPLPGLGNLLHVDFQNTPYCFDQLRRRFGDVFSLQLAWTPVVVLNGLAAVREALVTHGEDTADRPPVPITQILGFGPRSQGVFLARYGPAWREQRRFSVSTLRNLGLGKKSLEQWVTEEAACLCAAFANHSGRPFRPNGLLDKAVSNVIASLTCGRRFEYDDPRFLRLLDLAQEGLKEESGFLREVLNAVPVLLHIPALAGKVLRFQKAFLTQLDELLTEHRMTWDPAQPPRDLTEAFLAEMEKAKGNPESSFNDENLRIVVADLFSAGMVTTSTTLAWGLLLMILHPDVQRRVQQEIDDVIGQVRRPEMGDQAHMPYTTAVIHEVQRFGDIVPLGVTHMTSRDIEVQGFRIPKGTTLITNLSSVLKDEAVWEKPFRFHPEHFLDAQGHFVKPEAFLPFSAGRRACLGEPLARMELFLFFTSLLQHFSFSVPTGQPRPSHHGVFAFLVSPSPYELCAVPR

SMILES | IC50 [µM]
CCN(CC)CCN(Cc1ccc(-c2ccc(Cl)cc2)cc1)C(=O)Cn1c(SCc2ccc(F)cc2)nc(=O)c2c1CCC2 | 25
CCCc1cn(CC(=O)N(CCN(CC)CC)Cc2ccc(-c3ccc(C(F)(F)F)cc3)cc2)c(SCc2ccc(F)cc2)nc1=O | 22
CCc1cn(CC(=O)N(CCN(CC)CC)Cc2ccc(-c3ccc(C(F)(F)F)cc3)cc2)c(SCc2ccc(F)cc2)nc1=O | 24
CCN(CC)CCN(Cc1ccc(-c2ccc(C(F)(F)F)cc2)cc1)C(=O)Cn1cc(C)c(=O)nc1SCc1ccc(F)cc1 | 39
CCN(CC)CCN(Cc1ccc(-c2ccc(C(F)(F)F)cc2)cc1)C(=O)Cn1c(C)cc(=O)nc1SCc1ccc(F)cc1 | 47
CCN(CC)CCN(Cc1ccc(-c2ccc(Cl)cc2)cc1)C(=O)Cn1c(SCc2ccc(F)cc2)nc(=O)c2c1CCCC2 | 6
CCN(CC)CCN(Cc1ccc(-c2ccc(C(F)(F)F)cc2)cc1)C(=O)Cn1c(SCc2ccc(F)cc2)nc(=O)c2c1CCC2 [DARAPLADIB] | 26
CCN(CC)CCN(Cc1ccc(-c2ccc(C(F)(F)F)cc2)cc1)C(=O)Cn1cc(Cl)c(=O)nc1SCc1ccc(F)cc1 | 83
CCN(CC)CCN(Cc1ccc(-c2ccc(Cl)cc2)cc1)C(=O)Cn1cc(C)c(=O)nc1SCc1ccc(F)cc1 | 15
CCN(CC)CCN(Cc1ccc(-c2ccc(C(F)(F)F)cc2)cc1)C(=O)Cn1c(SCc2ccc(F)cc2)nc(=O)c(C)c1C | 24
CCN(CC)CCN(Cc1ccc(-c2ccc(C(F)(F)F)cc2)cc1)C(=O)Cn1cc(SC)c(=O)nc1SCc1ccc(F)cc1 | 39
CCN(CC)CCN(Cc1ccc(-c2ccc(C(F)(F)F)cc2)cc1)C(=O)Cn1cc(Br)c(=O)nc1SCc1ccc(F)cc1 | 56
CCc1cn(CC(=O)N(CCN(CC)CC)Cc2ccc(-c3ccc(Cl)cc3)cc2)c(SCc2ccc(F)cc2)nc1=O | 14
CCN(CC)CCN(Cc1ccc(-c2ccc(C(F)(F)F)cc2)cc1)C(=O)Cn1c(SCc2ccc(F)cc2)nc(=O)c2c1CCCC2 | 9

species on record: Homo sapiens; test: Inhibitory concentration against lyso-PtdCho production in human LDL; conditions: not given

SMILES | IC50 [µM]
CCN(CC)CCN(Cc1ccc(-c2ccc(C(F)(F)F)cc2)cc1)C(=O)Cn1c(SCc2ccc(F)cc2)nc(=O)c2c1CCC2 [DARAPLADIB] | 4

target: T1, Platelet-activating factor acetylhydrolase (Homo sapiens, UniProt Q13093); test: Inhibitory activity against recombinant human Lp-PLA2; conditions: not given
T1 sequence (Q13093 whole entry): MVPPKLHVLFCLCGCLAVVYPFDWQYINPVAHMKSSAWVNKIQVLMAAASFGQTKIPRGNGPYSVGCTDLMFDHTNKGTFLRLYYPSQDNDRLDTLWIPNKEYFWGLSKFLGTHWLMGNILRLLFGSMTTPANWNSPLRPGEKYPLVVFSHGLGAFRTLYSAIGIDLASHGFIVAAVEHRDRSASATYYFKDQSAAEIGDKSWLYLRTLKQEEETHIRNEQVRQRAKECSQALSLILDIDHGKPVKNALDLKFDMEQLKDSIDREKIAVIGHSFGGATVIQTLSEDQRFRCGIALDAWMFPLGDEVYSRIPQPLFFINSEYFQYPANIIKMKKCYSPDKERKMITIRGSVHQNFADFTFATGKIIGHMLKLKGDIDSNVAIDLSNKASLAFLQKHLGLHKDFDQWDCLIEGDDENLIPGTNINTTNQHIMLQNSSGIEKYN

SMILES | IC50 [µM]
CCN(CC)CCN(Cc1ccc(-c2ccc(Cl)cc2)cc1)C(=O)Cn1c(SCc2ccc(F)cc2)nc(=O)c2c1CCC2 | 0.0004
CCCc1cn(CC(=O)N(CCN(CC)CC)Cc2ccc(-c3ccc(C(F)(F)F)cc3)cc2)c(SCc2ccc(F)cc2)nc1=O | 0.0008
CCc1cn(CC(=O)N(CCN(CC)CC)Cc2ccc(-c3ccc(C(F)(F)F)cc3)cc2)c(SCc2ccc(F)cc2)nc1=O | 0.0004
CCN(CC)CCN(Cc1ccc(-c2ccc(C(F)(F)F)cc2)cc1)C(=O)Cn1cc(C)c(=O)nc1SCc1ccc(F)cc1 | 0.001
CCN(CC)CCN(Cc1ccc(-c2ccc(C(F)(F)F)cc2)cc1)C(=O)Cn1cc(CCNS(C)(=O)=O)c(=O)nc1SCc1ccc(F)cc1 | 0.001
CCN(CC)CCN(Cc1ccc(-c2ccc(C(F)(F)F)cc2)cc1)C(=O)Cn1cc(CO)c(=O)nc1SCc1ccc(F)cc1 | 0.0015
CCN(CC)CCN(Cc1ccc(-c2ccc(Cl)cc2)cc1)C(=O)Cn1c(SCc2ccc(F)cc2)nc(=O)c2c1CCCC2 | 0.00025
CCN(CC)CCN(Cc1ccc(-c2ccc(C(F)(F)F)cc2)cc1)C(=O)Cn1cc(CCN)c(=O)nc1SCc1ccc(F)cc1 | 0.038
CCN(CC)CCN(Cc1ccc(-c2ccc(C(F)(F)F)cc2)cc1)C(=O)Cn1cc(Cl)c(=O)nc1SCc1ccc(F)cc1 | 0.003
CCN(CC)CCN(Cc1ccc(-c2ccc(C(F)(F)F)cc2)cc1)C(=O)Cn1cc(SC)c(=O)nc1SCc1ccc(F)cc1 | 0.0008
CCN(CC)CCN(Cc1ccc(-c2ccc(C(F)(F)F)cc2)cc1)C(=O)Cn1cc([S+](C)[O-])c(=O)nc1SCc1ccc(F)cc1 (stereo unspecified) | 0.0008
CCN(CC)CCN(Cc1ccc(-c2ccc(C(F)(F)F)cc2)cc1)C(=O)Cn1cc(CCNC(C)=O)c(=O)nc1SCc1ccc(F)cc1 | 0.006
CCN(CC)CCN(Cc1ccc(-c2ccc(C(F)(F)F)cc2)cc1)C(=O)Cn1cc(Br)c(=O)nc1SCc1ccc(F)cc1 | 0.001
CCN(CC)CCN(Cc1ccc(-c2ccc(C(F)(F)F)cc2)cc1)C(=O)Cn1c(SCc2ccc(F)cc2)nc(=O)c2c1CCCC2 | 0.0001

species on record: Homo sapiens; test: Inhibitory concentration against monocyte chemotaxis; conditions: not given

SMILES | IC50 [µM]
CCN(CC)CCN(Cc1ccc(-c2ccc(C(F)(F)F)cc2)cc1)C(=O)Cn1c(SCc2ccc(F)cc2)nc(=O)c2c1CCC2 [DARAPLADIB] | 4

test system: not listed separately; test: Oral bioavailability in fasted rat; type: ADME, organism-based; conditions: in vivo

SMILES | bioavailability [%]
CCN(CC)CCN(Cc1ccc(-c2ccc(C(F)(F)F)cc2)cc1)C(=O)Cn1c(SCc2ccc(F)cc2)nc(=O)c2c1CCC2 [DARAPLADIB] | ~21

test system: not listed separately; test: Permeability was determined; type: ADME; conditions: not told; read-out: Permeability (converted)

SMILES | Papp [×10⁻⁶ cm/s]
CCCc1cn(CC(=O)N(CCN(CC)CC)Cc2ccc(-c3ccc(C(F)(F)F)cc3)cc2)c(SCc2ccc(F)cc2)nc1=O | 36.1
CCc1cn(CC(=O)N(CCN(CC)CC)Cc2ccc(-c3ccc(C(F)(F)F)cc3)cc2)c(SCc2ccc(F)cc2)nc1=O | 27.8
CCN(CC)CCN(Cc1ccc(-c2ccc(C(F)(F)F)cc2)cc1)C(=O)Cn1cc(C)c(=O)nc1SCc1ccc(F)cc1 | 22.2
CCN(CC)CCN(Cc1ccc(-c2ccc(C(F)(F)F)cc2)cc1)C(=O)Cn1cc(CO)c(=O)nc1SCc1ccc(F)cc1 | 0.556
CCN(CC)CCN(Cc1ccc(-c2ccc(C(F)(F)F)cc2)cc1)C(=O)Cn1cc(CCO)c(=O)nc1SCc1ccc(F)cc1 | 0.833
CCN(CC)CCN(Cc1ccc(-c2ccc(C(F)(F)F)cc2)cc1)C(=O)Cn1cc(Cl)c(=O)nc1SCc1ccc(F)cc1 | 30.6
CCN(CC)CCN(Cc1ccc(-c2ccc(Cl)cc2)cc1)C(=O)Cn1cc(C)c(=O)nc1SCc1ccc(F)cc1 | 27.8
CCN(CC)CCN(Cc1ccc(-c2ccc(C(F)(F)F)cc2)cc1)C(=O)Cn1cc(SC)c(=O)nc1SCc1ccc(F)cc1 | 8.33
CCN(CC)CCN(Cc1ccc(-c2ccc(C(F)(F)F)cc2)cc1)C(=O)Cn1cc([S+](C)[O-])c(=O)nc1SCc1ccc(F)cc1 (stereo unspecified) | 1.67
CCN(CC)CCN(Cc1ccc(-c2ccc(C(F)(F)F)cc2)cc1)C(=O)Cn1cc(Br)c(=O)nc1SCc1ccc(F)cc1 | 25
CCc1cn(CC(=O)N(CCN(CC)CC)Cc2ccc(-c3ccc(Cl)cc3)cc2)c(SCc2ccc(F)cc2)nc1=O | 33.3
CCN(CC)CCN(Cc1ccc(-c2ccc(C(F)(F)F)cc2)cc1)C(=O)Cn1cc(OC)c(=O)nc1SCc1ccc(F)cc1 | 6.94
